Measured values as given in article PMC3283556, “The Activities of Current Antimalarial Drugs on the Life Cycle Stages of Plasmodium: A Comparative Study with Human and Rodent Parasites” (PLoS Medicine, 2012).
Entries after “also recorded” stand apart in the source; their conditions may differ.

What was measured:
[1] = test system: P. falciparum asexual blood stage parasites (strains NF54, D6, K1, W2, 7G8, TM90C2A, V1/S); test: [3H]-hypoxanthine incorporation growth inhibition assay, asexual blood stage; assay type: cell-based, Plasmodium falciparum; conditions: Plasmodium falciparum
[2] = test system: P. falciparum oocyst formation; test: Standard membrane feed assay, P. falciparum oocysts in A. stephensi; assay type: in vivo, Plasmodium falciparum; conditions: 10 µM, gametocytes exposed 24 h before feeding
Procedure: (§1) Gametocyte cultures were produced according to the same protocol as the Pf exflagellation assay. Pooled gametocyte cultures were evenly divided between compounds in fresh medium and incubated at 37°C for 24 h. The parasite pellets were then resuspended in fresh RBCs and human serum treated with the compounds to a 50% haematocrit and immediately fed to mosquitoes as described above and then maintained at 27°C/60%RH for 10–12 d before dissection and counting.
Figure 3 The transmission-blocking potential of selected antimalarials in three bioassays that cover different phases of Plasmodium vector stage development. (A) Assays examined exflagellation (P. falciparum), ookinete formation (P. berghei), or oocyst formation (P. falciparum). All antimalarials were screened at 10 µM. (B) The biological content of the in vitro P. berghei ookinete assay spans gamete formation, fertilization, zygote development, and ookinete formation. Ookinete formation was insensitive to most of the antimalarials tested. […] (D) The in vitro P. falciparum exflagellation assay exposes mature gametocytes to antimalarials for 24 h before triggering exflagellation. […] All experiments in triplicate. (E) The in vivo P. falciparum oocyst assay differs from the P. berghei oocyst assay in that mature gametocytes were exposed to the antimalarials in culture for 24 h before feeding to mosquitoes. […] NPC1161-B, lumefantrine, halofantrine, and mefloquine +RS isomer were also active. (n = 4–61 observations; average ± standard error of the mean [SEM]).

Plasmodium oocysts = test: Oocyst development / sporogony, Plasmodium species not stated at the place; assay type: in vivo; conditions: for inhibition at 10 µM: Plasmodium, box linked to oocysts, read-out: Inhibition at 10 μM (oocysts, Figure 5)
Procedure: Membrane feeds were performed as described previously. Briefly, PbGFPcon-infected mouse blood was mixed with compounds, immediately placed into membrane feeders (39°C) and offered for 30 min to 80–100 overnight-starved A. stephensi (SDA 500 strain). After 7–9 d at 19°C/80%RH, mosquito midguts were dissected out. Midguts were fixed with paraformaldehyde and oocyst number was determined microscopically by semi-automated analysis as previously described.
as §1, with “counting. […]” for “counting.”

HepG2 cells = test: Growth retardation of HepG2 cells; conditions: for IC50: Homo sapiens, HepG2, read-out: IC50 HepG2

| SMILES | IC50 ([1]; strain 7G8) | IC50 ([1]; strain NF54) | transmission-blocking effect on P. falciparum oocysts (words) [2] | transmission-blocking effect on P. falciparum oocysts (words) ([2]; listed as NPC1161-B) | inhibition at 10 µM (Plasmodium oocysts) | effect on sporogony / oocyst production (Plasmodium oocysts; species not given) | IC50 (HepG2 cells) | CI (cytotoxicity index) (HepG2 cells; IC50 HepG2 compared to IC50 parasite) | IC50 [1] | IC50 ([1]; multi-drug-resistant strains K1, W2 and 7G8) | CI (cytotoxicity index) (HepG2 cells; human, 48 h) |
| --- | --- | --- | --- | --- | --- | --- | --- | --- | --- | --- | --- |
| COc1cc(N[C@H](C)CCCN)c2nccc(C)c2c1Oc1ccc(Cl)c(Cl)c1 [NPC-1161B] | ~50 nM | ~500 nM | totally blocked transmission | active; also recorded: showed potency | > 90% | inhibits sporogony; also recorded: inhibit exflagellation in vitro and oocyst production in the mosquito vector; also recorded: inhibited both exflagellation and oocyst production | 840 ± 460 nM | 1.17 |  |  |  |
| CCCCN(CCCC)CCC(O)c1cc2c(Cl)cc(Cl)cc2c2cc(C(F)(F)F)ccc12 (centres unmarked) [halofantrine] |  |  | active; also recorded: impaired sporogony |  | > 90% |  | < 5660 nM |  | < 4 nM | 0.3 nM | <2.44 |
